Where two headings read alike, the source gives them in different places.
Experiments:
human CSNK1D = human CSNK1D (Homo sapiens (Human), UniProt P48730); assay: CSNK1D assay (ADP-Glo, 1 μM ATP); type: biochemical; details: median, read-out: CSNK1D IC50 [mol/l] (median)
Protocol: CSNK1D-inhibitory activity of compounds of the present invention in presence of 1 μM adenosine-tri-phosphate (ATP) was quantified employing the CSNK1D assay as described in the following paragraphs. In essence, the enzyme activity is measured by quantification of the adenosine-di-phosphate (ADP), which is generated as a co-product of the enzyme reaction, via the “ADP-Glo™ Kinase Assay” kit from the company Promega. This detection system works as follows: In a first step the ATP not consumed in the kinase reaction is quantitatively converted to CAMP employing an adenylate cyclase (“ADP-Glo-reagent”), then the adenylate cyclase is stopped and the ADP generated in the kinase reaction converted to ATP which generates in a luciferase-based reaction a glow-luminescence signal (“Kinase Detection Reagent”).
Recombinant fusion protein of N-terminal Glutathion-S-Transferase (GST) and full-length human CSNK1D, expressed by baculovirus infected insect cells and purified via Glutathion affinity chromatography, was purchased from Life Technologies (product no. PV3665) and used as enzyme. As substrate for the kinase reaction the biotinylated peptide Btn-Ahx-SGSEGDSESGEEEG (C-terminus in amide form) was used which can be purchased e.g. from the company Biosyntan (Berlin-Buch, Germany).
For the assay 50 nl of a 100-fold concentrated solution of the test compound in DMSO was pipetted into a white 1536-well microtiter plate (Greiner Bio-One, Frickenhausen, Germany), 2 μL of a solution of CSNK1D in aqueous assay buffer [50 mM HEPES pH 7.5, 10% (v/v) glycerol, 10 mM MgCl2, 50 mM NaCl, 1 mM dithiothreitol, 0.01% (w/v) bovine serum albumin, 0.01% (v/v) Triton X-100] were added and the mixture was incubated for 15 min at 22° C. to allow pre-binding of the test compounds to the enzyme before the start of the kinase reaction. Then the kinase reaction was started by the addition of 3 μL of a solution of ATP (1.67 μM=>final conc. in the 5 μL assay volume is 1 μM) and peptide substrate (50 μM=>final conc. in the 5 μL assay volume is 30 μM) in assay buffer and the resulting mixture was incubated for a reaction time of 30 min at 22° C. The concentration of CSNK1D was adjusted depending of the activity of the enzyme lot and was chosen appropriate to have the assay in the linear range, a typical concentration is about 0.5 ng/μL. The reaction was stopped by the addition of 2.5 μL of “ADP-Glo-reagent” (1:1.5 fold diluted with water) and the resulting mixture was incubated at 22° C. for 1 h to convert the ATP not consumed in the kinase reaction completely to CAMP. Subsequently 2.5 μL of the “kinase detection reagent” (1.2 fold more concentrated than recommended by the producer) were added, the resulting mixture was incubated at 22° C. for 1 h and then the luminescence measured with a suitable measurement instrument (e.g. Viewlux™ from Perkin-Elmer). The amount of emitted light was taken as a measure for the amount of ADP generated and thereby for the activity of the CSNK1D.
The data were normalised (enzyme reaction without inhibitor=0% inhibition, all other assay components but no enzyme=100% inhibition).

HCT 116 cells = assay: HCT 116 cell proliferation assay, CTG; type: cell-based; details: HCT 116, CTG, 96 h, median, read-out: 2D-PROLI HCT 116 CTG 96 h, IC50 - [mol/l] (median)
Protocol: 400 HCT 116 cells/30 μL/well were plated in growth medium (DMEM/Ham's F12, 10% FCS) in a 384-well plate (CORNING #3571) at day 1. Reference plate was seeded for time zero determination. All plates were incubated overnight 37° C. Day 2: test compound was added in 7-step dilution and incubate at 37° C. for 96 h. Day 2: time zero plate: 30 μL/well CTG solution (Promega Cell Titer Glo solution; catalog #G755B and G756B) were added, incubated for 30 minutes, read luminescence on PheraStar. Day 6: compound treated plates: 30 μL/well CTG solution (Promega Cell Titer Glo solution; catalog #G755B and G756B) were added, incubated for 30 minutes, luminescence was read on PheraStar. Proliferation was calculated after subtracting time zero luminescence values from day 6 values and comparing to untreated wells. The IC50 values were determined using the four parameter fit.

HT-29 cells = assay: HT29 cell proliferation assay, CTG method; type: cell-based; details: HT-29, CTG, 96 h, median, read-out: 2D-PROLI HT-29 CTG 96 h, IC50 - [mol/l] (median)
Protocol: CELL PROLIFERATION ASSAY CTG METHOD, 384-well version: Day 1: plated 400 cells/30 μL/well in growth medium (DMEM/Ham's F12; (Biochrom; #FG 4815, mit stabilem Glutamin)+FCS (final: 10%); (Biochrom; #S 0415)) in 384-well black plates (Corning #3571). Plated sister wells in a separate plate for time zero determination. Incubated all plates overnight at 37° C. Day 2: added test compounds in serial dilutions using the HP D300 Digital Dispenser and incubated at 37° C. for 96 h. Measured time zero plate: add 30 μL/well CTG solution (Promega CellTiter-Glo solution (catalog #G7573)) to wells in time zero plate; incubated for 2 minutes in a orbital shaker to induce cell lysis; allowed the plate to incubate at room temperature for additional 10 min to stabilize luminescent signal and read luminescence on PheraStar (rapid mode—0.02 sec/well; GAIN 3000). Day 6: Added 30 μL/well CTG solution to all test wells, incubated for 2 minutes in a orbital shaker to induce cell lysis; allowed the plate to incubate at room temperature for additional 10 min to stabilize luminescent signal and read luminescence on PheraStar (rapid mode—0.02 sec/well; GAIN 3000 Proliferation IC50s were calculated using the DRC application in ShiNy Analysis Platform-SNAP.”

Sequence of human CSNK1D (P48730 whole entry): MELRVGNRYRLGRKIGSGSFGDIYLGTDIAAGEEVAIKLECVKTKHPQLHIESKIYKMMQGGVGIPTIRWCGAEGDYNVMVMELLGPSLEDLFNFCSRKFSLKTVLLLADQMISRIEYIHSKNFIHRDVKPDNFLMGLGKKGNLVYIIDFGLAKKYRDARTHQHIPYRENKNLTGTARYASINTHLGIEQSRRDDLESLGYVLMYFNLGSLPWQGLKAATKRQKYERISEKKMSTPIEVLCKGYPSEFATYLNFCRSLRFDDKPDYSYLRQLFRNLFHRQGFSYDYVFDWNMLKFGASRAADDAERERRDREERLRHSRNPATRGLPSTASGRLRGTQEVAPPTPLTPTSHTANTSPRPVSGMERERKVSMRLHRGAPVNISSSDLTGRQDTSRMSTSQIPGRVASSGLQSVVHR

| IC50 (human CSNK1D) [nM] | IC50 (HCT 116 cells; Homo sapiens) [nM] | IC50 (HT-29 cells; Homo sapiens) [nM] | IC50 (HCT 116 cells) [nM] | IC50 (HT-29 cells) [nM] | SMILES |
| --- | --- | --- | --- | --- | --- |
| 6.69 | 1140 | 1650 |  |  | Cc1nocc1CC(=O)Nc1cc(-c2[nH]c3cccnc3c2-c2ccccn2)ccn1 [Example 30, 2-(3-methylisoxazol-4-yl)-N-[4-[3-(2-pyridyl)-^1H-pyrrolo[3,2-b]pyridin-2-yl]-2-pyridyl]acetamide] |
| 5.02 | 1080 | 1190 |  |  | Cc1noc(C)c1CC(=O)Nc1cc(-c2[nH]c3cccnc3c2-c2ccccn2)ccn1 [Example 12, 2-(3,5-dimethylisoxazol-4-yl)-N-[4-[3-(2-pyridyl)-^1H-pyrrolo[3,2-b]pyridin-2-yl]-2-pyridyl]acetamide] |
| 4.93 | 344 | 341 |  |  | O=C(Cc1ccn(CC(F)(F)F)n1)Nc1cc(-c2[nH]c3cccnc3c2-c2ccccn2)ccn1 [Example 20, N-[4-[3-(2-pyridyl)-^1H-pyrrolo[3,2-b]pyridin-2-yl]-2-pyridyl]-2-[1-(2,2,2-trifluoroethyl)pyrazol-3-yl]acetamide] |
| 3.92 |  |  | 429 | 206 | O=C(Nc1cc(-c2[nH]c3nccnc3c2-c2ccccn2)ccn1)[C@@H](CC(F)F)c1ccc(F)cc1 [Example C1, reference compound] |
| 6.38 | 489 | 338 |  |  | O=C(Cc1cc(C2CC2)on1)Nc1cc(-c2[nH]c3cccnc3c2-c2ccccn2)ccn1 [Example 27, 2-(5-cyclopropylisoxazol-3-yl)-N-[4-[3-(2-pyridyl)-^1H-pyrrolo[3,2-b]pyridin-2-yl]-2-pyridyl]acetamide] |
| 3.8 | 179 | 220 |  |  | Cc1nc(C)c(CC(=O)Nc2cc(-c3[nH]c4cccnc4c3-c3ccccn3)ccn2)s1 [Example 18, 2-(2,4-dimethylthiazol-5-yl)-N-[4-[3-(2-pyridyl)-^1H-pyrrolo[3,2-b]pyridin-2-yl]-2-pyridyl]acetamide] |
| 8.44 | 985 | 630 |  |  | Cc1nc(CC(=O)Nc2cc(-c3[nH]c4cccnc4c3-c3ccccn3)ccn2)co1 [Example 25, 2-(2-methyloxazol-4-yl)-N-[4-[3-(2-pyridyl)-^1H-pyrrolo[3,2-b]pyridin-2-yl]-2-pyridyl]acetamide] |
| 2.26 |  |  | 184 | 88.8 | O=C(Nc1cc(-c2[nH]c3ccc(F)nc3c2-c2ccccn2)ccn1)[C@@H](CC(F)F)c1ccc(F)cc1 [Example C2, reference compound] |
| 6.87 | 1030 | 1180 |  |  | Cc1nn(C)c(C)c1CC(=O)Nc1cc(-c2[nH]c3cccnc3c2-c2ccccn2)ccn1 [Example 17, N-[4-[3-(2-pyridyl)-^1H-pyrrolo[3,2-b]pyridin-2-yl]-2-pyridyl]-2-(1,3,5-trimethylpyrazol-4-yl)acetamide] |
| 6.48 | 518 | 340 |  |  | Cn1nc(CC(=O)Nc2cc(-c3[nH]c4cccnc4c3-c3ccccn3)ccn2)cc1C1CC1 [Example 29, 2-(5-cyclopropyl-1-methyl-pyrazol-3-yl)-N-[4-[3-(2-pyridyl)-^1H-pyrrolo[3,2-b]pyridin-2-yl]-2-pyridyl]acetamide] |
|  | 535 | 588 |  |  | O=C(Cc1cnco1)Nc1cc(-c2[nH]c3cccnc3c2-c2ccccn2)ccn1 [Example 4] |

The next lines start with the compound.

| SMILES | IC50 (human CSNK1D) [nM] | IC50 (HCT 116 cells; Homo sapiens) [nM] | IC50 (HT-29 cells; Homo sapiens) [nM] | IC50 (HCT 116 cells) [nM] | IC50 (HT-29 cells) [nM] |
| --- | --- | --- | --- | --- | --- |
| Cc1nn(C)cc1CC(=O)Nc1cc(-c2[nH]c3cccnc3c2-c2ccccn2)ccn1 [Example 9, 2-(1,3-dimethylpyrazol-4-yl)-N-[4-[3-(2-pyridyl)-^1H-pyrrolo[3,2-b]pyridin-2-yl]-2-pyridyl]acetamide] | 5.66 | 817 | 860 |  |  |
| Cc1cc(CC(=O)Nc2cc(-c3[nH]c4cccnc4c3-c3ccccn3)ccn2)nn1C [Example 16, 2-(1,5-dimethylpyrazol-3-yl)-N-[4-[3-(2-pyridyl)-^1H-pyrrolo[3,2-b]pyridin-2-yl]-2-pyridyl]acetamide] | 6.57 | 706 | 627 |  |  |
| Cn1cnc(CC(=O)Nc2cc(-c3[nH]c4cccnc4c3-c3ccccn3)ccn2)c1 [Example 5, 2-(1-methylimidazol-4-yl)-N-[4-[3-(2-pyridyl)-^1H-pyrrolo[3,2-b]pyridin-2-yl]-2-pyridyl]acetamide] | 13.1 | 2790 | 3420 |  |  |
| Cc1nc(CC(=O)Nc2cc(-c3[nH]c4cccnc4c3-c3ccccn3)ccn2)cs1 [Example 3, 2-(2-methylthiazol-4-yl)-N-[4-[3-(2-pyridyl)-^1H-pyrrolo[3,2-b]pyridin-2-yl]-2-pyridyl]acetamide] | 5.01 | 359 | 445 |  |  |
| Cc1ncc(CC(=O)Nc2cc(-c3[nH]c4cccnc4c3-c3ccccn3)ccn2)o1 [Example 24, 2-(2-methyloxazol-5-yl)-N-[4-[3-(2-pyridyl)-^1H-pyrrolo[3,2-b]pyridin-2-yl]-2-pyridyl]acetamide] | 5.37 | 418 | 481 |  |  |
| CC(C)n1ccc(CC(=O)Nc2cc(-c3[nH]c4cccnc4c3-c3ccccn3)ccn2)n1 [Example 28, 2-(1-isopropylpyrazol-3-yl)-N-[4-[3-(2-pyridyl)-^1H-pyrrolo[3,2-b]pyridin-2-yl]-2-pyridyl]acetamide] | 6.3 | 586 | 314 |  |  |
| O=C(Nc1cc(-c2[nH]c3c(OCC(F)F)ncnc3c2-c2ccccn2)ccn1)[C@@H](CC(F)F)c1ccc(F)cc1 [Example C3, reference compound] | 3.27 |  |  | 735 | 110 |
| Cn1nc(CC(=O)Nc2cc(-c3[nH]c4cccnc4c3-c3ccccn3)ccn2)cc1C(F)(F)F [Example 21, 2-[1-methyl-5-(trifluoromethyl)pyrazol-3-yl]-N-[4-[3-(2-pyridyl)-^1H-pyrrolo[3,2-b]pyridin-2-yl]-2-pyridyl]acetamide] | 4.88 | 362 | 222 |  |  |

Source: US20250188075A1, “SUBSTITUTED HETEROCYCLIC CSNK1 INHIBITORS” (The Broad Institute, Inc., priority 2022, published 2025)
